According to EPA's ToxRefDB 2:

Assays:
[1] = tested on: rabbit; details: Sub-acute repeat dose toxicity; Injection; Intravenous; dose end: 5 day; group: systemic; systemic / in life observation / clinical signs / altered breathing rate + systemic / in life observation / clinical signs / labored …
[2] = tested on: rabbit; details: Prenatal developmental toxicity study, Injection, Intravenous, dose end: 18 GD
[3] = tested on: rat; details: Sub-acute repeat dose toxicity, Injection, Intravenous, dose end: 5 day, group: systemic
[4] = tested on: rat; details: Sub-acute repeat dose toxicity, sprague dawley, Oral, Gavage/Intubation, dose end: 15 day, group: systemic
[5] = tested on: rat; details: Fertility (Segment I), Oral, Gavage/Intubation, dose end: 1 generation
[6] = tested on: rabbit; details: Prenatal developmental toxicity study, Oral, Gavage/Intubation, dose end: 20 GD, group: maternal
[7] = tested on: rat; details: Sub-acute repeat dose toxicity, sprague dawley, Oral, Gavage/Intubation, dose end: 15 day, group: systemic; remark: listed apart in the source
[8] = tested on: rat; details: Sub-acute repeat dose toxicity; sprague dawley; Oral; Gavage/Intubation; dose end: 5 day; group: systemic; systemic / clinical chemistry / aspartate aminotransferase (ast/sgot) / aspartate aminotransferase (ast/sgot) + systemic / in life …
[9] = tested on: rat; details: Prenatal developmental toxicity study, Oral, Gavage/Intubation, dose end: 21 GD
[10] = tested on: rabbit; details: Prenatal developmental toxicity study, Oral, Gavage/Intubation, dose end: 20 GD, group: maternal; remark: listed apart in the source
[11] = tested on: dog; details: Chronic toxicity, beagle, Oral, Gavage/Intubation, dose end: 272 day, group: systemic
[12] = tested on: rat; details: Subchronic oral toxicity in rodents, sprague dawley, Gavage/Intubation, dose end: 93 day, group: systemic
[13] = tested on: rabbit; details: Sub-acute repeat dose toxicity, new zealand white, Oral, Gavage/Intubation, dose end: 5 day, group: systemic
[14] = tested on: rat; details: Chronic toxicity; sprague dawley; Oral; Gavage/Intubation; dose end: 182 day; group: systemic; systemic / clinical chemistry / [other] / [other] + systemic / clinical chemistry / cholesterol / cholesterol + systemic / clinical …
[15] = tested on: rat; details: Sub-acute repeat dose toxicity; Oral; Gavage/Intubation; dose end: 36 day; group: systemic; systemic / in life observation / body weight / body weight + systemic / in life observation / food consumption / food consumption
[16] = tested on: dog; details: Sub-acute repeat dose toxicity, beagle, Oral, Gavage/Intubation, dose end: 22 day, group: systemic
[17] = tested on: dog; details: Subchronic oral toxicity in nonrodent, beagle, Gavage/Intubation, dose end: 94 day, group: systemic
[18] = tested on: rat; details: Prenatal developmental toxicity study, Oral, Gavage/Intubation, dose end: 18 GD
[19] = group: developmental, developmental / developmental malformation / bone / incomplete ossification + systemic / in life observation / body weight / fetal weight
[20] = group: maternal, systemic / in life observation / body weight / body weight + systemic / in life observation / body weight / body weight gain + systemic / in…
[21] = systemic / pathology microscopic / ovary / degeneration + systemic / clinical chemistry / albumin / albumin + systemic / clinical chemistry…
[22] = systemic / clinical chemistry / [other] / [other] + systemic / clinical chemistry / cytochrome p450, nos / cytochrome p450, nos + systemic…
[23] = systemic / in life observation / body weight / body weight + systemic / in life observation / clinical signs / alopecia + systemic / in life…
[24] = group: maternal, reproductive / reproductive performance / estrous cycle / corpora lutea + reproductive / reproductive performance / implantations / …
[25] = group: parental, systemic / in life observation / body weight / body weight + systemic / in life observation / body weight / body weight gain + systemic / in…
[26] = systemic / in life observation / clinical signs / altered breathing rate + systemic / in life observation / clinical signs / convulsions + …
[27] = systemic / in life observation / body weight / body weight gain + systemic / in life observation / food consumption / food consumption + …
[28] = group: developmental, systemic / in life observation / body weight / fetal weight
[29] = group: maternal, systemic / in life observation / body weight / body weight gain + systemic / in life observation / food consumption / food consumption + …
[30] = systemic / in life observation / mortality / mortality + systemic / in life observation / body weight / body weight gain + systemic / in …
[31] = systemic / clinical chemistry / alkaline phosphatase (alp/alk) / alkaline phosphatase (alp/alk) + systemic / in life observation / clinical …
[32] = systemic / in life observation / body weight / body weight gain + systemic / clinical chemistry / [other] / [other] + systemic / clinical …
[33] = systemic / in life observation / body weight / body weight + systemic / in life observation / clinical signs / altered breathing rate + …
[34] = systemic / organ weight / liver / absolute
[35] = systemic / organ weight / liver / absolute + systemic / clinical chemistry / [other] / [other] + systemic / clinical chemistry / alkaline …
[36] = group: maternal, systemic / in life observation / body weight / body weight gain + systemic / in life observation / clinical signs / alopecia + systemic / in…

## NC(N)=NC(=O)c1cnn(-c2cccc3ncccc23)c1C1CC1 [Zoniporide]
[1]
  LOAEL: > 250 mg/kg/day
  NEL: 50 mg/kg/day
  NOAEL: ≥ 250 mg/kg/day
[2]; [19]
  LEL: 100 mg/kg/day
  LOAEL: > 100 mg/kg/day
  NOAEL: ≥ 100 mg/kg/day
[2]; [20]
  LEL: 100 mg/kg/day
  LOAEL: > 100 mg/kg/day
  NEL: 30 mg/kg/day
  NOAEL: ≥ 100 mg/kg/day
[3]; systemic / pathology microscopic / blood vessel / inflammation + systemic / pathology microscopic / blood vessel / necrosis
  NEL: < 25 mg/kg/day
[3]; [21]
  LOAEL: > 250 mg/kg/day
  NOAEL: ≥ 250 mg/kg/day

## COc1ccc(OC(F)(F)F)cc1CN[C@H]1CCCN[C@H]1c1ccccc1
[4]; [22]
  LEL: 50 mg/kg/day
  NEL: 10 mg/kg/day
[4]; [23]
  LOAEL: > 400 mg/kg/day
  NOAEL: ≥ 400 mg/kg/day
[5]; [24]
  LEL: 150 mg/kg/day
  LOAEL: > 150 mg/kg/day
  NEL: 50 mg/kg/day
  NOAEL: ≥ 150 mg/kg/day
[5]; [25]
  LOAEL: > 150 mg/kg/day
  NEL: 5 mg/kg/day
  NOAEL: ≥ 150 mg/kg/day
[5]; group: parental, systemic / in life observation / body weight / body weight gain + systemic / in life observation / clinical signs / alopecia + systemic / in…
  LEL: 50 mg/kg/day
[6]; [26]
  LOAEL: > 75 mg/kg/day
  NEL: 25 mg/kg/day
  NOAEL: ≥ 75 mg/kg/day
[6]; systemic / in life observation / food consumption / food consumption
  LEL: 50 mg/kg/day
[7]; [22]
  LEL: 100 mg/kg/day
  NEL: < 100 mg/kg/day
[7]; [27]
  LOAEL: > 200 mg/kg/day
  NOAEL: ≥ 200 mg/kg/day
[8]
  LEL: 400 mg/kg/day
  LOAEL: > 1000 mg/kg/day
  NEL: < 400 mg/kg/day
  NOAEL: ≥ 1000 mg/kg/day
[9]; [28]
  LEL: 100 mg/kg/day
  LOAEL: > 100 mg/kg/day
  NOAEL: ≥ 100 mg/kg/day
[9]; [29]
  LEL: 30 mg/kg/day
  LOAEL: > 100 mg/kg/day
  NEL: 10 mg/kg/day
  NOAEL: ≥ 100 mg/kg/day
[10]; systemic / in life observation / mortality / mortality
  LEL: 15 mg/kg/day
[10]; [30]
  LOAEL: > 50 mg/kg/day
  NEL: 5 mg/kg/day
  NOAEL: ≥ 50 mg/kg/day
[11]; [31]
  LOAEL: > 20 mg/kg/day
  NOAEL: ≥ 20 mg/kg/day
[11]; systemic / in life observation / clinical signs / salivation
  LEL: 6 mg/kg/day
[12]; systemic / clinical chemistry / 5' nucleotidase / 5' nucleotidase + systemic / clinical chemistry / aspartate aminotransferase (ast/sgot) / …
  LEL: 30 mg/kg/day
[12]; [32]
  LOAEL: > 150 mg/kg/day
  NOAEL: ≥ 150 mg/kg/day
[13]; [33]
  LOAEL: > 200 mg/kg/day
  NEL: 20 mg/kg/day
  NOAEL: ≥ 200 mg/kg/day
[13]; systemic / in life observation / body weight / body weight + systemic / in life observation / food consumption / food consumption
  LEL: 100 mg/kg/day
[14]
  LEL: 30 mg/kg/day
  LOAEL: > 100 mg/kg/day
  NEL: 5 mg/kg/day
  NOAEL: ≥ 100 mg/kg/day
[15]
  LEL: 50 mg/kg/day
  LOAEL: > 50 mg/kg/day
  NEL: 20 mg/kg/day
  NOAEL: ≥ 50 mg/kg/day
[16]; systemic / clinical chemistry / alkaline phosphatase (alp/alk) / alkaline phosphatase (alp/alk)
  LEL: 10 mg/kg/day
[16]; [31]
  LOAEL: > 30 mg/kg/day
  NOAEL: ≥ 30 mg/kg/day
[17]; [34]
  LEL: 1 mg/kg/day
  NEL: < 1 mg/kg/day
[17]; [35]
  LOAEL: > 20 mg/kg/day
  NOAEL: ≥ 20 mg/kg/day
[18]; [28]
  LEL: 150 mg/kg/day
  LOAEL: > 150 mg/kg/day
  NOAEL: ≥ 150 mg/kg/day
[18]; [36]
  LEL: 75 mg/kg/day
  LOAEL: > 150 mg/kg/day
  NEL: 15 mg/kg/day
  NOAEL: ≥ 150 mg/kg/day
